Test results reported in paper PMC13195669, “GPR3 Ligands Discovered through Combined Virtual and Conformational Biosensor-Based Screening” (Journal of the American Chemical Society, 2026).

Legend:
Type in all cases: cell-based
[1] = target: T1, adenosine A2B receptor (A2BR) (Homo sapiens, UniProt P29275); assay: cAMP GloSensor 22F, agonist-stimulated A2BR; conditions: preincubation with 100 μM or 10 μM
T1 construct: expressed in transfected cells; host or cells: HEK293A, transient
T1 sequence (P29275 1-332): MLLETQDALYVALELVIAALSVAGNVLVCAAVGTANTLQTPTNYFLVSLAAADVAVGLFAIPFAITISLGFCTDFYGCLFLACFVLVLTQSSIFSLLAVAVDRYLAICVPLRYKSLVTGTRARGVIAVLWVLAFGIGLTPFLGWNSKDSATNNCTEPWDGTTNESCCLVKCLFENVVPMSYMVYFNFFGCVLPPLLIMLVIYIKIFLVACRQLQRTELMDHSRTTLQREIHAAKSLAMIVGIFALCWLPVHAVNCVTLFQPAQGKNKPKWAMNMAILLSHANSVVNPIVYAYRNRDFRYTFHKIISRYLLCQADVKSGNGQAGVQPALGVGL
Description: (§1) Next, we used the classical cAMP GloSensor technology to assess the target selectivity profile of 33. […] In addition, we tested the effects of 33 on cAMP changes mediated by agonist-stimulated GPCRs phylogenetically close to GPR3 and coupling to Gs or Gi/o proteins.
(§2) BRET-based GPCR conformational sensor experiments
(§3) Cells expressing the conformational GPCR biosensors were grown for 24 h (stable cells) or 48 h (transiently transfected cells) in white 96-well plates and washed with 100 µl of HBSS. After washing, cells were incubated for 2 minutes with a 1/1000 solution of the furimazine stock solution (Promega; cat. no. N1662). Three baseline BRET reads were recorded and averaged prior to the addition of serial dilutions of ligands or veh icle control and subsequent BRET reads. […] BRE T donor emission was quantified with a 470/80 nm monochromator. […] Experiments were carried out using a CLARIOstar plate reader.
(§4) FRET- and BRET-based measurements of cAMP levels and Gs dissociation/reassociation Transfected cells grown in black 96-well plates were washed twice with 100 µl of HBSS 48 h after transfection and incubated with HBSS. […] Three baseline FRET/BRET reads were recorded and averaged prior to the addition of serial dilutions of ligands or vehicle control and sub-sequent FRET/BRET reads. […] FRET donor emission was quantified with a 480/10 nm filter. […]
(§5) Luminescence measurement using the cAMP GloSensor™ 22F […]

[2] = target: T2, cannabinoid receptor 1 (CB1R) (Homo sapiens, UniProt P21554); assay: cAMP GloSensor 22F, agonist-stimulated CB1R; conditions: preincubation with 100 μM or 10 μM; 10 µM forskolin
T2 construct: expressed in transfected cells; host or cells: HEK293A, transient
Description: as §1, §2, §3, §4, §5

LPA receptor 1 (LPAR1) = target: T3, LPA receptor 1 (LPAR1) (Homo sapiens, UniProt Q92633); assay: cAMP GloSensor 22F, agonist-stimulated LPAR1; conditions: preincubation with 100 μM or 10 μM; 10 µM forskolin
T3 construct: expressed in transfected cells; host or cells: HEK293A, transient
Description: as §1, §2, §3, §4, §5

GPR3 T3.37A mutant = target: T4, GPR3 T3.37A mutant (Homo sapiens, UniProt P46089, T121A); assay: GPR3 conformational biosensor with T3.37A point mutation; conditions: wildtype vs mutant biosensor; transiently transfected HEK293A
T4 construct: ligated to the full-length C-terminus; expressed in transfected cells; host or cells: HEK293A, transient
Source text: To develop a hypothesis for the cause of the significant loss in efficacy from VH1 to 33, we computationally predicted the binding poses of both molecules in GPR3 (Figure a). […] In contrast, the cyclopropyl ring of 33 is still buried in the receptor’s transmembrane core. […] We also challenged this binding model of 33 with another GPR3 biosensor variant which harbors the T^3.37A point mutation in transmembrane helix 3. According to an alternative predicted pose of 33 obtained with Boltz-2 (c.f., SI – Materials and Methods section), this mutation should hamper 33 binding to GPR3.
as §2
as §3, with “After washing, cells were incubated for 2 minutes with a 1/1000 solution of the furimazine stock solution (Promega; cat. no. N1662).” left out
FRET- and BRET-based measurements of cAMP levels and Gs dissociation/reassociation Transfected cells grown in black 96-well plates were washed twice with 100 µl of HBSS 48 h after transfection and incubated with HBSS. […] FRET donor emission was quantified with a 480/10 nm filter. […]

T3 sequence (Q92633 whole entry, species assumed): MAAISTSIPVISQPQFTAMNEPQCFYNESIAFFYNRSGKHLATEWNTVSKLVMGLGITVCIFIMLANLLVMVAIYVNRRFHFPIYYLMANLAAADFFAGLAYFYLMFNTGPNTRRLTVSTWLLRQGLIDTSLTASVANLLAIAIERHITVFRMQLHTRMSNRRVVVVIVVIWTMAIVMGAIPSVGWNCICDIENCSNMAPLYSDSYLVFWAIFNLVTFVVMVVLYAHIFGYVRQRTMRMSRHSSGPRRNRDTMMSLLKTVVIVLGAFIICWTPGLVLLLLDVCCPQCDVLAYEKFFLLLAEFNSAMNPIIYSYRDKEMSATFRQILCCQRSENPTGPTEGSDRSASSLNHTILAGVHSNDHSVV
T2 sequence (P21554 whole entry, species assumed): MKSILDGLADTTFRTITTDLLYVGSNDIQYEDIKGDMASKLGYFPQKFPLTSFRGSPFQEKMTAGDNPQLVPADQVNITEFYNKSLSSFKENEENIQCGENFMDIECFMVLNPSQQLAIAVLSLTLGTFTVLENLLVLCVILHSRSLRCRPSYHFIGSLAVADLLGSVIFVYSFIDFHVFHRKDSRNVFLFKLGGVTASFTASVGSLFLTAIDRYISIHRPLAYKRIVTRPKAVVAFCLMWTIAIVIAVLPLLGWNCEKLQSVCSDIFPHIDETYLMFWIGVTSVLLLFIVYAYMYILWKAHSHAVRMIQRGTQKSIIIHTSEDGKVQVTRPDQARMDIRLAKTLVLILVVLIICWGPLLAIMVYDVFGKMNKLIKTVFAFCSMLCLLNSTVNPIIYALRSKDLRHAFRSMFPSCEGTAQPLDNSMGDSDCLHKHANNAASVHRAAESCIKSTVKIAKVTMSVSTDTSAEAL
T4 sequence (P46089 2-330 T121A limits assumed): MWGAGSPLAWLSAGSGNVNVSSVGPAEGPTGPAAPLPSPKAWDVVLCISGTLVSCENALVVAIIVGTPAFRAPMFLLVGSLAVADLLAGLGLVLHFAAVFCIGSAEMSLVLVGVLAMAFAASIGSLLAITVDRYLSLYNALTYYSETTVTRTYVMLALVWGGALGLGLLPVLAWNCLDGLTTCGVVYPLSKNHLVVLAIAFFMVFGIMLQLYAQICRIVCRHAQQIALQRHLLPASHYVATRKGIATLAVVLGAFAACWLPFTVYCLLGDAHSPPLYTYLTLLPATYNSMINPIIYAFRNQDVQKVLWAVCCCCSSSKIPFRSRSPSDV

N=c1n(Cc2ccccc2)c2ccccc2n1CC1CC1 [compound 33]
effect on agonist-induced cAMP change mediated by A2BR [1]: neither 100 μM nor 10 μM 33 significantly altered
effect on agonist-induced cAMP change mediated by CB1R [2]: neither 100 μM nor 10 μM 33 significantly altered
effect on agonist-induced cAMP change mediated by LPAR1 (LPA receptor 1 (LPAR1)): neither 100 μM nor 10 μM 33 significantly altered
effect of T3.37A mutation on activity (GPR3 T3.37A mutant): no such effect on 33 activity
